One data set is described as follows: Compression strength (hardening property) of powder stored under load for 2 months. Type of data set: physicochemical. Particulars: Load 100 (table head [Kg]; text 100 g/cm^2); 20-30° C., relative humidity 40-70%. On the procedure: Method for the Measurement of Compression Strength
(1) A test sample (500 g) is put in a poly-ethylene bag of 20 cm×20 cm in a room at a temperature of 20-30° C. and a relative humidity of 40-70%. The powder is levelled to an area of 20 cm×20 cm and air is forced out of the bag, and, then, the bag is sealed. This bag is further put in a kraft bag and this kraft bag is sealed.
(2) The kraft bag of (1) is placed horizontally on a flat plate and a plate is put thereon. […]
(3) With keeping the temperature of 20-30° C. and the relative humidity of 40-70%, the test sample is taken out after lapse of 2 months from the starting of application of load. Several test pieces (4 cm long×4 cm broad×2 cm high) are cut out from the sample.
With `O=C([O-])CC(NCCNC(CC(=O)[O-])C(=O)[O-])C(=O)[O-].[Na+].[Na+].[Na+].[Na+]` (centres unmarked) [Example 51, tetrasodium ethylenediaminedisuccinate], the “Compression strength after stored for 2 months” value (“Compression strength” for short) came to 1.2 Kg/cm^2. For the molecule `O=C(O)C[C@H](NCCN[C@@H](CC(=O)O)C(=O)O)C(=O)O` [compound 22, (S,S)-ethylenediaminedisuccinic acid, reference compound], the “Compression strength” value was determined as 2.5 Kg/cm^2. As for `O=C([O-])CCN[C@@H](CC(=O)[O-])C(=O)[O-].[Na+].[Na+].[Na+]` [compound 2, trisodium salt of (S)-aspartic acid-N-monopropionic acid, reference compound], the “Compression strength” value was 3.0 Kg/cm^2. On to `O=C(O)C[C@H](NCC(O)CN[C@@H](CC(=O)O)C(=O)O)C(=O)O` [compound 25, (S,S)-2-hydroxy-1,3-propanediaminedisuccinic acid, reference compound], for which the “Compression strength” value was determined as 2.5 Kg/cm^2.

Take `CN(CC(=O)O)CC(=O)O` [Example 38, N-methyliminodiacetic acid]: the “Compression strength” value worked out at 1.1 Kg/cm^2.

Consider `O=C(O)CC(NCCCNC(CC(=O)O)C(=O)O)C(=O)O` (centres unmarked) [Example 68, 1,3-propanediaminedisuccinic acid], for which the “Compression strength” value was 1.2 Kg/cm^2. Regarding `O=C([O-])C[C@H](NCCCN[C@@H](CC(=O)[O-])C(=O)[O-])C(=O)[O-].[Na+].[Na+].[Na+].[Na+]` [compound 19, tetrasodium (S,S)-1,3-propanediaminedisuccinate, reference compound], the “Compression strength” value is 2.9 Kg/cm^2. As to `O=C(O)C[C@@H](C(=O)O)N(CC(=O)O)CC(=O)O` [compound 7, (S)-aspartic acid-N,N-diacetic acid, reference compound], the “Compression strength” value worked out at 2.3 Kg/cm^2. On to `O=C(O)C[C@@H](C(=O)O)N(CC(=O)O)CC(=O)O` [Example 19, (S)-aspartic acid-N,N-diacetic acid], for which the “Compression strength” value came to 1.1 Kg/cm^2. For `O=C([O-])C[C@H](NCCN[C@@H](CC(=O)[O-])C(=O)[O-])C(=O)[O-].[Na+].[Na+].[Na+].[Na+]` [Example 52, tetrasodium (S,S)-ethylenediaminedisuccinate], the “Compression strength” value is listed as 1.0 Kg/cm^2.

Consider `O=C([O-])CN(CC(=O)[O-])c1ccccc1C(=O)[O-].[Fe+3]` [Example 44, iron salt of anthranilic acid-N,N-diacetic acid], for which the “Compression strength” value turned out to be 1.0 Kg/cm^2. As for `O=C(O)CN(CCS(=O)(=O)O)CC(=O)O` [Example 37, taurine-N,N-diacetic acid], the “Compression strength” value worked out at 1.0 Kg/cm^2. In the case of `O=C(O)CN(CCS(=O)(=O)O)CC(=O)O` [compound 12, taurine-N,N-diacetic acid, reference compound], the “Compression strength” value turned out to be 3.3 Kg/cm^2.

`O=C([O-])CN[C@@H](CC(=O)[O-])C(=O)[O-].[Na+].[Na+].[Na+]` [Example 5, trisodium salt of (S)-aspartic acid-N-monoacetic acid]: the “Compression strength” value turned out to be 1.2 Kg/cm^2.

Still in this data set, the particulars now being: Load 200 (table head [Kg]; text 200 g/cm^2); 20-30° C., relative humidity 40-70%.
As to `CN(CC(=O)[O-])CC(=O)[O-].[Na+].[Na+]` [Example 26, disodium N-methyliminodiacetate], the “Compression strength” value is on record as 1.2 Kg/cm^2. On to `O=C([O-])C[C@H](NCCCN[C@@H](CC(=O)[O-])C(=O)[O-])C(=O)[O-].[Cu+2].[Na+].[Na+]` [Example 83, copper disodium (S,S)-1,3-propanediaminedisuccinate], for which the “Compression strength” value came out at 1.3 Kg/cm^2. On to `O=C([O-])CN(CC(=O)[O-])c1ccccc1C(=O)[O-].[Na+].[Na+].[Na+]` [Example 27, trisodium salt of anthranilic acid-N,N-diacetic acid], for which the “Compression strength” value is 1.0 Kg/cm^2. Turning to `O=C(O)C[C@H](NCCCN[C@@H](CC(=O)O)C(=O)O)C(=O)O` [Example 64, (S,S)-1,3-propanediaminedisuccinic acid], the “Compression strength” value amounted to 0.9 Kg/cm^2. As to `O=C(O)CCN[C@@H](CC(=O)O)C(=O)O` [Example 14, (S)-aspartic acid-N-monopropionic acid], the “Compression strength” value came to 0.6 Kg/cm^2. Same read-out and setting: with `O=C([O-])C[C@@H](C(=O)[O-])N(CC(=O)[O-])CC(=O)[O-].[Na+].[Na+].[Na+].[Na+]` [Example 3, tetrasodium salt of (S)-aspartic acid-N,N-diacetic acid] the figure was 0.9 Kg/cm^2; with `O=C([O-])CC(NCCNC(CC(=O)[O-])C(=O)[O-])C(=O)[O-].[Cu+2].[Na+].[Na+]` (centres unmarked) [Example 77, copper disodium ethylenediaminedisuccinate], 1.2 Kg/cm^2. Same read-out and setting: with `O=C([O-])CN(CCS(=O)(=O)[O-])CC(=O)[O-].[Na+].[Na+].[Na+]` [Example 25, trisodium salt of taurine-N,N-diacetic acid] the figure was 1.1 Kg/cm^2; with `O=C([O-])C[C@H](NCCCN[C@@H](CC(=O)[O-])C(=O)[O-])C(=O)[O-].[Fe+3].[NH4+]` [Example 82, iron ammonium (S,S)-1,3-propanediaminedisuccinate], 1.1 Kg/cm^2; with `O=C([O-])CC(NCCCNC(CC(=O)[O-])C(=O)[O-])C(=O)[O-].[Na+].[Na+].[Na+].[Na+]` (centres unmarked) [Example 48, tetrasodium 1,3-propanediaminedisuccinate], 1.0 Kg/cm^2.

As for `O=C(O)CN(CC(=O)O)c1ccccc1C(=O)O` [Example 36, anthranilic acid-N,N-diacetic acid], the “Compression strength” value is given as 0.9 Kg/cm^2. With `C[C@@H](C(=O)[O-])N(CC(=O)[O-])CC(=O)[O-].[Na+].[Na+].[Na+]` [Example 4, trisodium salt of (S)-α-alanine-N,N-diacetic acid], the “Compression strength” value is 1.1 Kg/cm^2.

As to `O=C([O-])C[C@H](NCC(O)CN[C@@H](CC(=O)[O-])C(=O)[O-])C(=O)[O-].[Na+].[Na+].[Na+].[Na+]` [Example 50, tetrasodium (S,S)-2-hydroxy-1,3-propanediaminedisuccinate], the “Compression strength” value is recorded as 1.2 Kg/cm^2. Regarding `O=C(O)CC(NCCCNC(CC(=O)O)C(=O)O)C(=O)O` (centres unmarked) [Example 63, 1,3-propanediaminedisuccinic acid], the “Compression strength” value is reported as 1.1 Kg/cm^2.

The data set is the same for the next values; noted with them: Load 300 (table head [Kg]; text 300 g/cm^2); 20-30° C., relative humidity 40-70%.
`O=C([O-])CCN[C@@H](CC(=O)[O-])C(=O)[O-].[Na+].[Na+].[Na+]` [Example 10, trisodium salt of (S)-aspartic acid-N-monopropionic acid]: the “Compression strength” value was 1.0 Kg/cm^2. Consider `C[C@@H](C(=O)[O-])N(CC(=O)[O-])CC(=O)[O-].[Na+].[Na+].[Na+]` [Example 12, trisodium salt of (S)-α-alanine-N,N-diacetic acid], for which the “Compression strength” value was determined as 0.9 Kg/cm^2. On the same count and under the same terms, with `O=C([O-])CC(NCCCNC(CC(=O)[O-])C(=O)[O-])C(=O)[O-].[Na+].[Na+].[Na+].[Na+]` (centres unmarked) [Example 58, tetrasodium 1,3-propanediaminedisuccinate] the figure was 1.0 Kg/cm^2; with `O=C([O-])CN(CC(=O)[O-])c1ccccc1C(=O)[O-].[Na+].[Na+].[Na+]` [Example 33, trisodium salt of anthranilic acid-N,N-diacetic acid], 0.9 Kg/cm^2. Regarding `O=C(O)CN(CCS(=O)(=O)O)CC(=O)O` [Example 40, taurine-N,N-diacetic acid], the “Compression strength” value came out at 0.9 Kg/cm^2. As to `O=C([O-])C[C@H](NCCN[C@@H](CC(=O)[O-])C(=O)[O-])C(=O)[O-].[Na+].[Na+].[Na+].[Na+]` [Example 57, tetrasodium (S,S)-ethylenediaminedisuccinate], the “Compression strength” value was determined as 0.9 Kg/cm^2. Turning to “iron salt of anthranilic acid-N,N-diacetic acid [Example 45]”, the “Compression strength” value was 0.8 Kg/cm^2.

As for `O=C([O-])C[C@H](NCCCN[C@@H](CC(=O)[O-])C(=O)[O-])C(=O)[O-].[Na+].[Na+].[Na+].[Na+]` [Example 59, tetrasodium (S,S)-1,3-propanediaminedisuccinate], the “Compression strength” value is 1.1 Kg/cm^2. As for `O=C([O-])CN(CCS(=O)(=O)[O-])CC(=O)[O-].[Na+].[Na+].[Na+]` [Example 31, trisodium salt of taurine-N,N-diacetic acid], the “Compression strength” value was found to be 1.0 Kg/cm^2. Still for that read-out and setting: with `CN(CC(=O)[O-])CC(=O)[O-].[Na+].[Na+]` [Example 32, disodium N-methyliminodiacetate] the figure was 0.8 Kg/cm^2; with `O=C([O-])CN[C@@H](CC(=O)[O-])C(=O)[O-].[Na+].[Na+].[Na+]` [Example 9, trisodium salt of (S)-aspartic acid-N-monoacetic acid], 0.8 Kg/cm^2. `O=C(O)C[C@H](NCCN[C@@H](CC(=O)O)C(=O)O)C(=O)O` [Example 71, ethylenediaminedisuccinic acid]: the “Compression strength” value is 1.2 Kg/cm^2. Consider `O=C(O)C[C@@H](C(=O)O)N(CC(=O)O)CC(=O)O` [Example 23, (S)-aspartic acid-N,N-diacetic acid], for which the “Compression strength” value amounted to 1.0 Kg/cm^2.

These data come from patent publication US6426229B1, “Chelating agent and detergent comprising the same” (Mitsubishi Rayon Co., Ltd., priority 1995, dated 2002).
